Among the data in ChEMBL document CHEMBL4177734, “Cytotoxic quinazoline alkaloids from the seeds of Peganum harmala” (Bioorg Med Chem Lett, 2018) are IC50 values, retold here.

Holding throughout (assay type): functional, cell-based
One experiment deals with PC-3. In words: Cytotoxicity against human PC3 cells assessed as reduction in cell viability by MTT assay. A general note: Formazan colour is commonly taken as a measure of viable cells.
The test system of the next experiment is HL-60. Kind of experiment: Cytotoxicity against human HL60 cells assessed as reduction in cell viability by trypan blue method.
A further experiment has as its system SGC-7901. In words: Cytotoxicity against human SGC7901 cells assessed as reduction in cell viability by MTT assay.
The nature of experiment [1]: Cytotoxicity against mouse Sp2/0-Ag14 cells.
The nature of experiment [2]: Cytotoxicity against Med-merk carcinoma cells (unknown origin).
[3] abbreviates: Homo sapiens, PC-3, read-out: IC50.
Setting [4] is: Homo sapiens, HL-60, read-out: IC50.

For the compound `O[C@@H]1CCN2Cc3ccccc3N=C12`, the IC50 in the experiment with PC-3 (setting [3]) was 15.4 µM; in the experiment with HL-60 (hl-60) it was “Not Active”; with SGC-7901 it was “Not Active”.
Take `O=c1c2ccccc2nc2n1CC[C@@H]2O`: the 50% inhibitory concentration (IC50) entry was “Not Active” in the experiment on PC-3 (pc-3), 67.8 µM in the experiment with HL-60 (setting [4]) and “Not Active” in the experiment on SGC-7901.
`COC(=O)CCn1cnc2ccccc2c1=O`: the IC50 result in the experiment on PC-3 (pc-3), with HL-60 (hl-60) and in the experiment with SGC-7901 was “Not Active” each time.
For `O=c1c2cc(O)ccc2nc2n1CC[C@H]2O`, the IC50 entry in the experiment on PC-3 (pc-3), in the experiment with HL-60 (hl-60) and in the experiment on SGC-7901 was “Not Active” throughout.
On to `O=c1c2cc(O)ccc2nc2n1CC[C@@H]2O`, for which the IC50 entry with PC-3 (pc-3), in the experiment with HL-60 (hl-60) and with SGC-7901 was “Not Active” throughout.
In the case of `O=c1c2ccccc2nc2n1CC[C@@H]2O[C@@H]1O[C@H](CO[C@@H]2O[C@H](CO)[C@@H](O)[C@H](O)[C@H]2O)[C@@H](O)[C@H](O)[C@H]1O`, the IC50 entry in the experiment with PC-3 (pc-3), with HL-60 (hl-60) and with SGC-7901 was “Not Active” in each case.
For the compound `O=c1c2ccccc2nc2n1CC[C@@H]2O[C@@H]1O[C@H](CO)[C@@H](O)[C@H](O)[C@H]1O`, the IC50 result in the experiment with PC-3 (pc-3), with HL-60 (hl-60) and in the experiment on SGC-7901 was “Not Active” throughout.
Regarding `Nc1ccccc1CN1CC[C@@H](O[C@@H]2O[C@H](CO[C@@H]3O[C@H](CO)[C@@H](O)[C@H](O)[C@H]3O)[C@@H](O)[C@H](O)[C@H]2O)C1=O`, the IC50 result in the experiment on PC-3 (pc-3), in the experiment on HL-60 (hl-60) and in the experiment with SGC-7901 was “Not Active” throughout.
`O=c1[nH]c(CCCO)nc2ccccc12`: the half-maximal inhibitory concentration (IC50) result with PC-3 (pc-3), in the experiment with HL-60 (hl-60) and with SGC-7901 was “Not Active” throughout.
For the compound `O=c1c2ccccc2nc2n1CC[C@H]2O[C@@H]1O[C@H](CO[C@@H]2O[C@H](CO)[C@@H](O)[C@H](O)[C@H]2O)[C@@H](O)[C@H](O)[C@H]1O`, the IC50 entry in the experiment with PC-3 (pc-3), in the experiment on HL-60 (hl-60) and in the experiment with SGC-7901 was “Not Active” in each case.
On to `Nc1ccccc1CN1CC[C@H](O[C@@H]2O[C@H](CO[C@@H]3O[C@H](CO)[C@@H](O)[C@H](O)[C@H]3O)[C@@H](O)[C@H](O)[C@H]2O)C1=O`, for which the figures for the IC50 result in the experiment on PC-3 (pc-3), with HL-60 (setting [4]) and in the experiment with SGC-7901 were “Not Active”, 42.8 µM and “Not Active”, respectively.
For `Nc1ccccc1CN1CC[C@@H](O)C1=O`, the figures for the IC50 entry in the experiment with PC-3 (pc-3), with HL-60 (setting [4]) and in the experiment with SGC-7901 were “Not Active”, 42.3 µM and “Not Active”, respectively.
With `Nc1ccccc1CN1CC[C@H](O)C1=O`, the IC50 result in the experiment with PC-3 (pc-3) is “Not Active”; with HL-60 (setting [4]) it was 42.3 µM; in the experiment with SGC-7901, “Not Active”.
Turning to `O=c1c2ccccc2nc2n1CC[C@H]2O`, the half-maximal inhibitory concentration (IC50) result with PC-3 (pc-3) was “Not Active”; with HL-60 (setting [4]), 67.8 µM; with SGC-7901 it was “Not Active”.
Turning to `O=c1c2ccccc2nc2n1CCC2O` (racemic), the half-maximal inhibitory concentration (IC50) in experiment [1] turned out to be 19.2 µM; in experiment [2], 25.3 µM.
With `O=c1c2ccccc2nc2n1CCC2` [DEOXYVASICINONE], the IC50 entry with PC-3 (pc-3), with HL-60 (hl-60) and in the experiment with SGC-7901 was “Not Active” in each case.
With `O=c1[nH]cnc2ccccc12` [QUINAZOLINONE], the IC50 entry in the experiment with PC-3 (pc-3), in the experiment on HL-60 (hl-60) and in the experiment on SGC-7901 was “Not Active” each time.
On to `O[C@H]1CCN2Cc3ccccc3N=C12` [VASICINE], for which the IC50 in the experiment with PC-3 (setting [3]) was 15.4 µM; in the experiment on HL-60 (hl-60) it was “Not Active”; in the experiment with SGC-7901, “Not Active”.

The term IC50 denotes the concentration that inhibits the measured activity by half.
